Test system: mutant Huntington (HTT) protein
Test: HTT Mutant HTRF iPSC assay (mHTT protein lowering)
Assay type: cell-based
Conditions: human iPSC derived from a HTT patient with a poly-Q49 mutation

## CCN1CCC(n2nc3cc(-c4cc(C(F)F)c5nc(C)cn5n4)cc(F)c3n2)CC1 [Compound 377, 6-(8-(difluoromethyl)-2-methylimidazo[1,2-b]pyridazin-6-yl)-2-(1-ethylpiperidin-4-yl)-4-fluoro-2H-benzo[d][1,2,3]triazole]
  IC50: 0.1 to 1 µM

## Cc1cn2cc(-c3cc(F)c4nn(C5CCNCC5)nc4c3)cc2c(C)n1 [Compound 378, 6-(1,3-dimethylpyrrolo[1,2-a]pyrazin-7-yl)-4-fluoro-2-(piperidin-4-yl)-2H-benzo[d][1,2,3]triazole]
  IC50: 0.1 to 1 µM

## CCc1nc(C)cn2cc(-c3cc(F)c4nn(C5CCNCC5)nc4c3)cc12 [Compound 379, 6-(1-ethyl-3-methylpyrrolo[1,2-a]pyrazin-7-yl)-4-fluoro-2-(piperidin-4-yl)-2H-benzo[d][1,2,3]triazole]
  IC50: 0.1 to 1 µM

## Cc1cn2nc(-c3cc(F)c4nn(C5CCN(C)CC5)nc4c3)cc(C)c2n1 [Compound 380, 6-(2,8-dimethylimidazo[1,2-b]pyridazin-6-yl)-4-fluoro-2-(1-methyl-4-piperidyl)benzotriazole]
  IC50: 0.1 to 1 µM

## Cc1cc(-c2cc(F)c3nn(C4CCNCC4)nc3c2)nc2cn(C)nc12 [Compound 381, 6-(2,7-dimethyl-2H-pyrazolo[4,3-b]pyridin-5-yl)-4-fluoro-2-(piperidin-4-yl)-2H-benzo[d][1,2,3]triazole]
  IC50: 0.1 to 1 µM

## Cn1cc2cc(-c3cc(F)c4nn(C5CCNCC5)nc4c3)cc(C(F)F)c2n1 [Compound 382, 6-(7-(difluoromethyl)-2-methyl-2H-indazol-5-yl)-4-fluoro-2-(piperidin-4-yl)-2H-benzo[d][1,2,3]triazole]
  IC50: 0.1 to 1 µM

## Cc1cn2nc(-c3cc(F)c4nn(CC5CNC5)nc4c3)cc(C)c2n1 [Compound 383, 2-(azetidin-3-ylmethyl)-6-(2,8-dimethylimidazo[1,2-b]pyridazin-6-yl)-4-fluoro-2H-benzo[d][1,2,3]triazole]
  IC50: 0.1 to 1 µM

## Cc1cn2nc(-c3cc(F)c4nn(C5CCNCC5)nc4c3)ccc2n1 [Compound 384, 4-fluoro-6-(2-methylimidazo[1,2-b]pyridazin-6-yl)-2-(piperidin-4-yl)-2H-benzo[d][1,2,3]triazole]
  IC50: 0.1 to 1 µM

## Cc1cn2nc(-c3cc(F)c4nn(C5CC6(CNC6)C5)nc4c3)cc(C)c2n1 [Compound 385, 6-(2,8-dimethylimidazo[1,2-b]pyridazin-6-yl)-4-fluoro-2-(2-azaspiro[3.3]heptan-6-yl)-2H-benzo[d][1,2,3]triazole]
  IC50: 0.1 to 1 µM

## Cc1cn2nc(-c3cc(F)c4nn(CC5CCNC5)nc4c3)cc(C)c2n1 (centres unmarked) [Compound 386, 6-(2,8-dimethylimidazo[1,2-b]pyridazin-6-yl)-4-fluoro-2-(pyrrolidin-3-ylmethyl)-2H-benzo[d][1,2,3]triazole]
  IC50: < 0.1 µM

## Cc1cn2nc(-c3cc(F)c4nn(C5CCNCC5)nc4c3)cc(C3CC3)c2n1 [Compound 387, 6-(8-cyclopropyl-2-methylimidazo[1,2-b]pyridazin-6-yl)-4-fluoro-2-(piperidin-4-yl)-2H-benzo[d][1,2,3]triazole]
  IC50: 0.1 to 1 µM

## Cc1cn2nc(-c3cc(F)c4nn(C5CCNCC5)nc4c3)cc2c(C)n1 [Compound 388, 6-(4,6-dimethylpyrazolo[1,5-a]pyrazin-2-yl)-4-fluoro-2-(piperidin-4-yl)-2H-benzo[d][1,2,3]triazole]
  IC50: 0.1 to 1 µM

## CCc1cc(-c2cc(F)c3nn(C4CCNCC4)nc3c2)nn2cc(C)nc12 [Compound 389, 6-(8-ethyl-2-methylimidazo[1,2-b]pyridazin-6-yl)-4-fluoro-2-(piperidin-4-yl)-2H-benzo[d][1,2,3]triazole]
  IC50: 0.1 to 1 µM

## Cc1nc2c(C)cc(-c3cc(F)c4nn(C5CCNCC5)nc4c3)nn2n1 [Compound 390, 6-(7-fluoro-2-(piperidin-4-yl)-2H-benzo[d][1,2,3]triazol-5-yl)-2,8-dimethyl-[1,2,4]triazolo[1,5-b]pyridazine]
  IC50: 0.1 to 1 µM

## Cc1nc2c(C(F)(F)F)cc(-c3cc(F)c4nn(C5CCNCC5)nc4c3)nn2n1 [Compound 391, 6-(7-fluoro-2-(piperidin-4-yl)-2H-benzo[d][1,2,3]triazol-5-yl)-2-methyl-8-(trifluoromethyl)-[1,2,4]triazolo[1,5-b]pyridazine]
  IC50: < 0.1 µM

## COc1cc(-c2cc(F)c3nn(C4CCNCC4)nc3c2)nn2nc(C)nc12 [Compound 392, 6-(7-fluoro-2-(piperidin-4-yl)-2H-benzo[d][1,2,3]triazol-5-yl)-8-methoxy-2-methyl-[1,2,4]triazolo[1,5-b]pyridazine]
  IC50: 0.1 to 1 µM

## Cc1cn2nc(-c3cc(F)c4nn(C5CC6(CCNCC6)C5)nc4c3)cc(C)c2n1 [Compound 395, 6-(2,8-dimethylimidazo[1,2-b]pyridazin-6-yl)-4-fluoro-2-(7-azaspiro[3.5]nonan-2-yl)-2H-benzo[d][1,2,3]triazole]
  IC50: < 0.1 µM

## Cc1cn2nc(-c3cc(F)c4nn(C5CCC6(CCNC6)C5)nc4c3)cc(C)c2n1 (centres unmarked) [Compound 396, 6-(2,8-dimethylimidazo[1,2-b]pyridazin-6-yl)-4-fluoro-2-(2-azaspiro[4.4]nonan-7-yl)-2H-benzo[d][1,2,3]triazole]
  IC50: 0.1 to 1 µM

## Cc1cn2nc(-c3cc(F)c4nn(C5CC6(CCNC6)C5)nc4c3)cc(C)c2n1 (centres unmarked) [Compound 398, 6-(2,8-dimethylimidazo[1,2-b]pyridazin-6-yl)-4-fluoro-2-(6-azaspiro[3.4]octan-2-yl)-2H-benzo[d][1,2,3]triazole]
  IC50: < 0.1 µM

## COCCN1CCC(c2nc3cc(-c4cc(C)c5nc(C)cn5n4)cc(F)c3[nH]2)CC1 [Compound 417, 6-(7-fluoro-2-(1-(2-methoxyethyl)piperidin-4-yl)-1H-benzo[d]imidazol-5-yl)-2,8-dimethylimidazo[1,2-b]pyridazine]
  IC50: 0.1 to 1 µM

## Cc1cn2nc(-c3cc(F)c4[nH]c(C5CCNC(C)C5)nc4c3)cc(C)c2n1 (centres unmarked) [Compound 418, 6-(7-fluoro-2-(2-methylpiperidin-4-yl)-1H-benzo[d]imidazol-5-yl)-2,8-dimethylimidazo[1,2-b]pyridazine]
  IC50: 0.1 to 1 µM

## Cc1cn2nc(-c3cc(F)c4[nH]c(C5CCNC(C)(C)C5)nc4c3)cc(C)c2n1 (centres unmarked) [Compound 419]
  IC50: 0.1 to 1 µM

## Cc1cn2nc(-c3cc(F)c4[nH]c(C5CC6(CCNC6)C5)nc4c3)cc(C)c2n1 (centres unmarked) [Compound 420, 6-(7-fluoro-2-(6-azaspiro[3.4]octan-2-yl)-1H-benzo[d]imidazol-5-yl)-2,8-dimethylimidazo[1,2-b]pyridazine]
  IC50: 0.1 to 1 µM

## Cc1cn2nc(-c3cc(F)c4[nH]c(C5CC6(CCNCC6)C5)nc4c3)cc(C)c2n1 [Compound 421, 6-(7-fluoro-2-(7-azaspiro[3.5]nonan-2-yl)-1H-benzo[d]imidazol-5-yl)-2,8-dimethylimidazo[1,2-b]pyridazine]
  IC50: 0.1 to 1 µM

## Cc1cn2nc(-c3cc(F)c4[nH]c(C5CCN(CC6CC6)CC5)nc4c3)cc(C)c2n1 [Compound 422, 6-(2-(1-(cyclopropylmethyl)piperidin-4-yl)-7-fluoro-1H-benzo[d]imidazol-5-yl)-2,8-dimethylimidazo[1,2-b]pyridazine]
  IC50: < 0.1 µM

## Cc1cn2nc(-c3cc(F)c4[nH]c(C5CC6CC(N)C6C5)nc4c3)cc(C)c2n1 (centres unmarked) [Compound 423, 3-(5-(2,8-dimethylimidazo[1,2-b]pyridazin-6-yl)-7-fluoro-1H-benzo[d]imidazol-2-yl)bicyclo[3.2.0]heptan-6-amine]
  IC50: 0.1 to 1 µM
